Laboratory results published in patent US12077503B2, “Substituted cyclic amides and their use as herbicides” (FMC CORPORATION, priority 2015, dated 2024).

Experiments:
Test in all cases: Test C preemergence
Type in all cases: in vivo
[1] = system: Galium (catchweed bedstraw, Galium aparine); settings: for Plant response rating (scale of 0 to 100), Galium: 0 is no effect, 100 is complete control
Outline: (§1)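 Seeds in loam-sand soil treated preemergence, or plants in peat-based medium sprayed postemergence at 2–18 cm (1- to 4-leaf stage), with compound in a non-phytotoxic solvent mixture containing surfactant. Greenhouse-held 13–15 d, then visually rated against controls on a 0–100 scale (0 = no effect, 100 = complete control); dash = not tested.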

[2] = system: barnyardgrass (Echinochloa crus-galli); settings: for Plant response rating (scale of 0 to 100), Barnyardgrass: 0 is no effect, 100 is complete control
Outline: as §1

[3] = system: blackgrass (Alopecurus myosuroides); settings: for Plant response rating (scale of 0 to 100), Blackgrass: 0 is no effect, 100 is complete control
Outline: as §1

corn (Zea mays) = settings: for Plant response rating (scale of 0 to 100), Corn: 0 is no effect, 100 is complete control
Outline: as §1

[4] = system: crabgrass, large (large crabgrass, Digitaria sanguinalis); settings: for Plant response rating (scale of 0 to 100), Crabgrass, Large: 0 is no effect, 100 is complete control
Outline: as §1

[5] = system: foxtail, giant (giant foxtail, Setaria faberii); settings: for Plant response rating (scale of 0 to 100), Foxtail, Giant: 0 is no effect, 100 is complete control
Outline: as §1

[6] = system: lambsquarters (Chenopodium album); settings: for Plant response rating (scale of 0 to 100), Lambsquarters: 0 is no effect, 100 is complete control
Outline: as §1

[7] = system: morningglory (Ipomoea coccinea); settings: for Plant response rating (scale of 0 to 100), Morningglory: 0 is no effect, 100 is complete control
Outline: as §1

[8] = system: nutsedge, yellow (yellow nutsedge, Cyperus esculentus); settings: for Plant response rating (scale of 0 to 100), Nutsedge, Yellow: 0 is no effect, 100 is complete control
Outline: as §1

[9] = system: oilseed rape (Brassica napus); settings: for Plant response rating (scale of 0 to 100), Oilseed Rape: 0 is no effect, 100 is complete control
Outline: as §1

[10] = system: ragweed (common ragweed, Ambrosia elatior); settings: for Plant response rating (scale of 0 to 100), Ragweed: 0 is no effect, 100 is complete control
Outline: as §1

[11] = system: ryegrass, Italian (Italian ryegrass, Lolium multiflorum); settings: for Plant response rating (scale of 0 to 100), Ryegrass, Italian: 0 is no effect, 100 is complete control
Outline: as §1

soybean (Glycine max) = settings: for Plant response rating (scale of 0 to 100), Soybean: 0 is no effect, 100 is complete control
Outline: as §1

[12] = system: velvetleaf (Abutilon theophrasti); settings: for Plant response rating (scale of 0 to 100), Velvetleaf: 0 is no effect, 100 is complete control
Outline: as §1

[13] = system: waterhemp (common waterhemp, Amaranthus rudis); settings: for Plant response rating (scale of 0 to 100), Waterhemp: 0 is no effect, 100 is complete control
Outline: as §1

[14] = system: wheat (winter wheat, Triticum aestivum); settings: for Plant response rating (scale of 0 to 100), Wheat: 0 is no effect, 100 is complete control
Outline: as §1

[15] = 62 g ai/ha, scale 0 to 100, 0 no effect, 100 complete control

## CN1CC(c2ccc(C(C)(F)F)cc2)C(C(=O)Nc2cccc(F)c2F)C1=O (stereo not shown) [Compound 690]
[1]; 8 g ai/ha
  Plant response rating (scale of 0 to 100), Galium: 100
[1]; 16 g ai/ha
  Plant response rating (scale of 0 to 100), Galium: 90
[1]; 31 g ai/ha
  Plant response rating (scale of 0 to 100), Galium: 95
[1]; [15]
  Plant response rating, Galium: 98
[2]; 8 g ai/ha
  Plant response rating (scale of 0 to 100), Barnyardgrass: 85
[2]; 16 g ai/ha
  Plant response rating (scale of 0 to 100), Barnyardgrass: 95
[2]; 31 g ai/ha
  Plant response rating (scale of 0 to 100), Barnyardgrass: 95
[2]; [15]
  Plant response rating, Barnyardgrass: 98
[3]; 8 g ai/ha
  Plant response rating (scale of 0 to 100), Blackgrass: 0
[3]; 16 g ai/ha
  Plant response rating (scale of 0 to 100), Blackgrass: 0
[3]; 31 g ai/ha
  Plant response rating (scale of 0 to 100), Blackgrass: 50
[3]; [15]
  Plant response rating, Blackgrass: 55
Corn (Zea mays); 8 g ai/ha
  Plant response rating (scale of 0 to 100), Corn: 20
Corn (Zea mays); 16 g ai/ha
  Plant response rating (scale of 0 to 100), Corn: 10
Corn (Zea mays); 31 g ai/ha
  Plant response rating (scale of 0 to 100), Corn: 20
Corn (Zea mays); [15]
  Plant response rating, Corn: 70
[4]; 8 g ai/ha
  Plant response rating (scale of 0 to 100), Crabgrass, Large: 95
[4]; 16 g ai/ha
  Plant response rating (scale of 0 to 100), Crabgrass, Large: 98
[4]; 31 g ai/ha
  Plant response rating (scale of 0 to 100), Crabgrass, Large: 98
[4]; [15]
  Plant response rating, Crabgrass, Large: 100
[5]; 8 g ai/ha
  Plant response rating (scale of 0 to 100), Foxtail, Giant: 90
[5]; 16 g ai/ha
  Plant response rating (scale of 0 to 100), Foxtail, Giant: 95
[5]; 31 g ai/ha
  Plant response rating (scale of 0 to 100), Foxtail, Giant: 95
[5]; [15]
  Plant response rating, Foxtail, Giant: 98
[6]; 8 g ai/ha
  Plant response rating (scale of 0 to 100), Lambsquarters: 65
[6]; 16 g ai/ha
  Plant response rating (scale of 0 to 100), Lambsquarters: 65
[6]; 31 g ai/ha
  Plant response rating (scale of 0 to 100), Lambsquarters: 75
[6]; [15]
  Plant response rating, Lambsquarters: 85
[7]; 8 g ai/ha
  Plant response rating (scale of 0 to 100), Morningglory: 0
[7]; 16 g ai/ha
  Plant response rating (scale of 0 to 100), Morningglory: 0
[7]; 31 g ai/ha
  Plant response rating (scale of 0 to 100), Morningglory: 0
[7]; [15]
  Plant response rating, Morningglory: 0
[8]; 8 g ai/ha
  Plant response rating (scale of 0 to 100), Nutsedge, Yellow: 0
[8]; 16 g ai/ha
  Plant response rating (scale of 0 to 100), Nutsedge, Yellow: 0
[8]; 31 g ai/ha
  Plant response rating (scale of 0 to 100), Nutsedge, Yellow: 0
[8]; [15]
  Plant response rating, Nutsedge, Yellow: 50
[9]; 8 g ai/ha
  Plant response rating (scale of 0 to 100), Oilseed Rape: 0
[9]; 16 g ai/ha
  Plant response rating (scale of 0 to 100), Oilseed Rape: 50
[9]; 31 g ai/ha
  Plant response rating (scale of 0 to 100), Oilseed Rape: 75
[9]; [15]
  Plant response rating, Oilseed Rape: 80
[10]; 8 g ai/ha
  Plant response rating (scale of 0 to 100), Ragweed: 0
[10]; 16 g ai/ha
  Plant response rating (scale of 0 to 100), Ragweed: 10
[10]; 31 g ai/ha
  Plant response rating (scale of 0 to 100), Ragweed: 25
[10]; [15]
  Plant response rating, Ragweed: 80
[11]; 8 g ai/ha
  Plant response rating (scale of 0 to 100), Ryegrass, Italian: 0
[11]; 16 g ai/ha
  Plant response rating (scale of 0 to 100), Ryegrass, Italian: 10
[11]; 31 g ai/ha
  Plant response rating (scale of 0 to 100), Ryegrass, Italian: 40
[11]; [15]
  Plant response rating, Ryegrass, Italian: 45
Soybean (Glycine max); 8 g ai/ha
  Plant response rating (scale of 0 to 100), Soybean: 0
Soybean (Glycine max); 16 g ai/ha
  Plant response rating (scale of 0 to 100), Soybean: 0
Soybean (Glycine max); 31 g ai/ha
  Plant response rating (scale of 0 to 100), Soybean: 0
Soybean (Glycine max); [15]
  Plant response rating, Soybean: 0
[12]; 8 g ai/ha
  Plant response rating (scale of 0 to 100), Velvetleaf: 0
[12]; 16 g ai/ha
  Plant response rating (scale of 0 to 100), Velvetleaf: 0
[12]; 31 g ai/ha
  Plant response rating (scale of 0 to 100), Velvetleaf: 20
[12]; [15]
  Plant response rating, Velvetleaf: 50
[13]; 8 g ai/ha
  Plant response rating (scale of 0 to 100), Waterhemp: 65
[13]; 16 g ai/ha
  Plant response rating (scale of 0 to 100), Waterhemp: 80
[13]; 31 g ai/ha
  Plant response rating (scale of 0 to 100), Waterhemp: 90
[13]; [15]
  Plant response rating, Waterhemp: 95
[14]; 8 g ai/ha
  Plant response rating (scale of 0 to 100), Wheat: 0
[14]; 16 g ai/ha
  Plant response rating (scale of 0 to 100), Wheat: 5
[14]; 31 g ai/ha
  Plant response rating (scale of 0 to 100), Wheat: 40
[14]; [15]
  Plant response rating, Wheat: 45
